Data set [1] deals with 5-HT2A receptor. The data set can be described thus: DOI-evoked head-twitch (HTR) and ear scratch (ESR) behavioural responses. Conditions: for DOI-evoked ESR / DOI-evoked HTR: vs DOI alone. It counts as in vivo, mice.
Data set [2] has as its system 5-HT2A receptor. The data set can be described thus: DOI-evoked IEG (c-fos, Arc, egr2 mRNA) expression, in situ hybridization. In kind it is in vivo, mice. Here is the method:
In separate molecular studies, central 5-HT2A receptor function was assessed by measuring DOI-induced mRNA expression of the IEG c-fos, as well as complementary IEGs Arc and egr2 in cortical regions (Gonzalez-Maeso et al., 2007; Jennings et al., 2008). The challenge dose of DOI (2 mg kg^−1 i.p.) was selected on the basis of preliminary dose response studies and evidence that DOI-evoked IEG expression was blocked by a selective 5-HT2A receptor antagonist (Jennings et al., 2008).
Mice were randomly allocated to one of the following treatments (6 mice per group); i) acute ebselen (10 mg kg^−1 i.p.) or vehicle, ii) repeated lithium (3 days; 10 mmol kg^−1 i.p. on day 1, 3 mmol kg^−1 i.p. twice daily on days 2-3) or vehicle. Drug doses and pre-treatment times were selected as noted above; ebselen (1 h), lithium (18 h). Groups of mice were acclimatised to a procedure room for 4 h prior to each experiment. […]
c-Fos, Arc and egr2 mRNA was measured on tissue sections using in situ hybridization (Jennings et al., 2008). […]
Optical density measurements were obtained from the autoradiograms using computer-based image analysis (MCID software). Optical density readings were converted in nCi g^−1 of tissue by calibration with the use of [^14C] microscales, which were co-exposed with the slides. […]

For data set [3], the system named is 5-HT2A receptor. The data set can be described thus: Psilocin-evoked head-twitch response (HTR). It counts as in vivo, mice. As to conditions: ebselen pretreatment; psilocin 2 mg kg^-1 i.p.
Data set [4] concerns 5-HT2A receptor binding sites. In words: Receptor autoradiography, [3H]-ketanserin binding sites in frontal cortex after treatment. It counts as in vivo, mouse. Here is the method: The effect of ebselen and lithium treatment on the abundance of cortical 5-HT2A receptor binding sites was measured using receptor autoradiography. Mice were randomly allocated to one of the following treatments (6 mice per group); i) acute ebselen (10 mg kg^−1 i.p.) or vehicle, ii) repeated ebselen (10 mg kg^−1 i.p., twice daily for 7 days; last injection morning of the 8th day) or vehicle, and iii) repeated lithium (7 days; 10 mmol kg^−1 i.p. on day 1, 3 mmol kg^−1 i.p. twice daily on days 2-7) or vehicle.
Tissue sections (12 μm) were cryostat-cut at the level of the frontal cortex and stored in −80° C. On the day of the experiment, sections were incubated (at room temperature) in Tris-HCl buffer (0.17 M, pH 7.7) for 20 min, and then for 2 h with either 2 nM [^3H]-ketanserin (PerkinElmer) to determine total binding, or 2 nM [^3H]-ketanserin plus 10 μM methysergide to determine non-specific binding. Sections were then washed twice for 10 min with ice-cold 4° C. Tris-HCl buffer (0.17 M, pH 7.7), followed by double deionised water. Finally, slides were air-dried overnight before being exposed to autoradiographic films (BioMax MR, Kodak) for 12 weeks.
Optical density measurements were obtained from the autoradiograms as described above. […] Specific binding was calculated by subtracting non-specific binding from total binding. […]

The subject of a further data set is brain extracellular 5-HT. The data set can be described thus: Microdialysis, extracellular 5-HT in hippocampus. In kind it is in vivo, mice. How it is done: The microdialysis probe was connected to a perfusion pump (CMA/100, CMA Microdialysis Ltd.) and perfused (2 μl min^−1) continuously with artificial CSF (140 mM NaCl, 3 mM KCl, 1.2 mM Na2HPO4, 0.27 mM NaH2PO4, 1 mM MgCl2, 2.4 mM CaCl2 and 7.2 mM glucose). After 2 h perfusate samples were collected every 20 min and analysed immediately by HPLC with electrochemical detection (see below).
Once 3 consecutive baseline samples were stable, mice received a single injection of ebselen (10 mg kg^−1 i.p.) or vehicle. Citalopram (5 mg kg^−1 i.p.) was administered 1 h later and dialysates were collected for a further 2 h. At the end of each experiment, brains were removed and probe placement was confirmed by histological examination.
(§1) Both mcrodialysates (20 μl) and brain tissue supernatants (50 μl) were analysed by an HPLC system, comprising a silica-based, reversed phase column (3.0 μm ODS2, 4.6 mm×100 mm, Waters Ltd) coupled to an electrochemical detector (glass carbon working electrode versus Ag/AgCl reference; LC-4C, Bioanalytical systems). For microdialysates, analytes were separated at room temperature by an isocratic mobile phase comprising 12.5% (v/v) methanol, 0.13 M NaHPO4.H2O, 0.025 mM octane sulphonic acid, 0.85 mM EDTA and 2 mM NaCl at pH 3.5, and with the working electrode set at +0.7 V.

A further data set has as its system 5-HT synthesis. In words: 5-HT synthesis (5-HTP accumulation after NSD1015). In kind it is in vivo, mouse. Here is the method: (§2) The level of 5-HT synthesis in frontal cortex and hippocampus was obtained by measuring the accumulation of 5-HTP following inhibition of aromatic amino acid decarboxylase. Mice (n=6 per group) were administered ebselen (0.5, 1 or 5 mg kg^−1 i.p.) or vehicle and 1 h later animals were injected with the aromatic amino acid decarboxylase inhibitor NSD1015 (100 mg kg^−1 i.p.). Mice were then culled by cervical dislocation 30 min following NSD1015 and brain tissue was removed and stored at −80° C. Separate experiments measured levels of 5-HT, 5-HIAA and tryptophan in cortex and hippocampus. Mice (n=6 per group) were administered ebselen (0.5, 1 or 5 mg kg^−1 i.p.) or vehicle and then culled by cervical dislocation 1 h post-drug. Brain tissue was dissected out and stored at −80° C. prior to neurochemical analysis.
(§3) On the day of neurochemical analysis, tissue pieces (˜20 mg) of frozen frontal cortex and hippocampus were placed in Eppendorf tubes containing 500 μl perchloric acid (0.09 M) and homogenised using a polytron kinetic homogeniser (15000 rpm for 10 sec). Tissue homogenates were then centrifuged (1000 rpm for 10 min) and the supernatant was transferred in a new Eppendorf tube, protected from light, and kept on ice before analysis using HPLC with electrochemical detection (see below).
as §1
(§4) For measurement of 5-HT, 5-HIAA and tryptophan in brain tissue supernatants, analytes were separated at room temperature by an isocratic mobile phase comprising an isocratic mix of 15% (v/v) methanol, 2 mM 1-octanesulphonic acid, 0.12 M NaHPO4.H2O, 2 mM NaCl, and 0.1 mM EDTA at pH 3.7 with the working electrode set at +0.85V. For measurement of 5-HTP the mobile phase was adjusted to pH 3.4.

Data set [5] in a line: Tissue levels of 5-HT, 5-HIAA and tryptophan. It counts as in vivo, mouse. Conditions: 1 h post-drug. Here is the method: as §2, §3, §1, §4
For data set [6] the following is noted: rats; cited from earlier work.
The conditions of data set [7]: reported in WO 2012/107735; cited from earlier work.
The conditions of data set [8]: clinical trials for ischemic stroke (Yamaguchi et al 1998); cited from earlier work.
The mark [9] stands for this setting: AR-A014418 10 or 20 mg kg^-1 i.p. pretreatment.
The mark [10] stands for this setting: acute ebselen 1, 5 or 10 mg kg^-1 i.p., DOI 2 mg kg^-1 i.p.
Where [11] appears, read: repeated ebselen 10 mg kg^-1 i.p. for 7 days.
Setting [12] is: L-690,330 150 or 240 mg kg^-1 i.p. pretreatment.

In the case of `COc1ccc(CNC(=O)Nc2ncc([N+](=O)[O-])s2)cc1` [AR-A014418, N-[(4-methoxyphenyl)methyl]-N′-(5-nitro-2-thiazolyl) urea, reference compound], in the data set on 5-HT2A receptor [1] (setting [9]), the “DOI-induced ESR” value is listed as “did not affect” and the “DOI-induced HTR” value is on record as “did not affect”.

As for `COc1cc(CC(C)N)c(OC)cc1I` (stereo not shown) [DOI, 1-(2,5-dimethoxy-4-iodophenyl)-propan-2-amine, reference compound], the “Increase in IEG mRNA above vehicle-injected controls” value in the data set with 5-HT2A receptor [2] (DOI 2 mg kg^-1 i.p., selected brain regions) is recorded as 50-200%.

`O=c1c2ccccc2[se]n1-c1ccccc1` [Ebselen, 2-phenyl-1,2-benzisoselenazol-3(2H)-one]: in the data set with 5-HT2A receptor [1] (setting [10]), the “DOI-evoked ESR” value was “dose-related decrease” and the “DOI-evoked HTR” value is recorded as “dose-related decrease”. Also, in the data set on 5-HT2A receptor [1] (setting [11]), the “Inhibitory effect on DOI-evoked ESR” value is reported as “persisted” and the “Inhibitory effect on DOI-evoked HTR” value is listed as “persisted”. The “Psilocin-induced HTR” value in the data set on 5-HT2A receptor [3] was “decreased”. Moreover, in the data set on 5-HT2A receptor [2] (ebselen 10 mg kg^-1 i.p., cingulate and somatosensory cortex (Arc, c-fos), caudate nucleus and endopiriform cortex (egr-2)), the “IEG responses to DOI (Arc, c-fos, egr-2 mRNA)” value is on record as “attenuated”. Further, the “[^3H]-Ketanserin binding sites” value in data set [4] (acute ebselen 10 mg kg^-1 i.p. (2h), vehicle 4.33 ± 0.66) is 3.36 ± 0.38 nCi g^-1 of tissue. Besides, the “[^3H]-Ketanserin binding sites” value in data set [4] (repeated ebselen 10 mg kg^-1 i.p. (7 days), vehicle 6.60 ± 0.27) is 6.12 ± 0.63 nCi g^-1 of tissue. Also, the “Effect of citalopram on extracellular 5-HT after ebselen pretreatment” value in the data set with brain extracellular 5-HT (ebselen 10 mg kg^-1 i.p. 1 h before citalopram 5 mg kg^-1 i.p., greatest effect 20-40 min post citalopram) is given as “enhanced”. Also, the “Extracellular 5-HT, ebselen alone” value with brain extracellular 5-HT (ebselen 10 mg kg^-1 i.p., vs vehicle-injected controls) was “no effect”. Further, in the data set with 5-HT synthesis (ebselen 0.5 mg kg^-1 i.p.), the “5-HTP Cortex” value is listed as 109.7 ± 10.6 % of vehicle and the “5-HTP Hippocampus” value is 87.9 ± 14.6 % of vehicle. Moreover, in the data set with 5-HT synthesis (ebselen 1 mg kg^-1 i.p.), the “5-HTP Cortex” value is recorded as 100.4 ± 3.7 % of vehicle and the “5-HTP Hippocampus” value is recorded as 95.6 ± 6.5 % of vehicle. Besides, in the data set on 5-HT synthesis (ebselen 5 mg kg^-1 i.p.), the “5-HTP Cortex” value is 202.5 ± 15.0 % of vehicle and the “5-HTP Hippocampus” value is on record as 152.6 ± 9.0 % of vehicle. Moreover, in data set [5] (ebselen 0.5 mg kg^-1 i.p.), the “5-HIAA Cortex” value is 83.3 ± 14.4 % of vehicle, the “5-HIAA Hippocampus” value is given as 129.8 ± 12.9 % of vehicle, the “5-HT Cortex” value is 158.1 ± 14.7 % of vehicle and the “5-HT Hippocampus” value is listed as 234.4 ± 23.9 % of vehicle. In data set [5] (ebselen 0.5 mg kg^-1 i.p.), the “Tryptophan Cortex” value is given as 105.0 ± 10.3 % of vehicle and the “Tryptophan Hippocampus” value is given as 210.2 ± 35.1 % of vehicle. Also, in [5] (ebselen 1 mg kg^-1 i.p.), the “5-HIAA Cortex” value is 75.9 ± 6.3 % of vehicle, the “5-HIAA Hippocampus” value is listed as 141.0 ± 9.5 % of vehicle, the “5-HT Cortex” value is recorded as 148.6 ± 11.2 % of vehicle and the “5-HT Hippocampus” value is listed as 225.9 ± 14.3 % of vehicle. In data set [5] (ebselen 1 mg kg^-1 i.p.), the “Tryptophan Cortex” value is given as 122.7 ± 20.6 % of vehicle and the “Tryptophan Hippocampus” value is listed as 128.5 ± 13.6 % of vehicle. In data set [5] (ebselen 5 mg kg^-1 i.p.), the “5-HIAA Cortex” value is given as 88.7 ± 3.8 % of vehicle, the “5-HIAA Hippocampus” value is 139.2 ± 17.0 % of vehicle, the “5-HT Cortex” value is listed as 130.9 ± 4.8 % of vehicle and the “5-HT Hippocampus” value is 189.4 ± 21.4 % of vehicle. In data set [5] (ebselen 5 mg kg^-1 i.p.), the “Tryptophan Cortex” value is listed as 131.9 ± 14.5 % of vehicle and the “Tryptophan Hippocampus” value is 135.4 ± 17.2 % of vehicle. Besides, the LD50 result in [6] is “greater than 1000 mg/kg”. For the same compound, the “Transfer across the blood/brain barrier” value in data set [7] is recorded as “capable of transferring across the blood/brain barrier”. Also, the “Toxicity in humans at pharmaceutically effective dosages” value in data set [8] is listed as “sufficiently non-toxic”.

As for `CC(Oc1ccc(O)cc1)(P(=O)(O)O)P(=O)(O)O` [L-690,330, [1-(4-hydroxyphenoxy)ethylidene]bisphosphonic acid, reference compound], in the data set with 5-HT2A receptor [1] (setting [12]), the “DOI-evoked ESR” value was “decreased” and the “DOI-evoked HTR” value is “decreased”.

On to `CN(C)CCCC1(c2ccc(F)cc2)OCc2cc(C#N)ccc21` (stereo not shown) [citalopram, reference compound], for which the “Peak increase of 5-HT in hippocampal microdialysates above pre-drug values” in the data set on brain extracellular 5-HT (citalopram 5 mg kg^-1 i.p., 60 min post injection, awake mice) is “approximately 450%”.

(Values after patent US11707453B2, “Treatment of unipolar depressive disorder” (OXFORD UNIVERSITY INNOVATION LIMITED, priority 2017, dated 2023).)
